Measured values as given in patent US6559281B1, “Non-naturally occurring synthetic lytic peptides” (priority 1993, dated 2003).
Where two headings read alike, the source gives them in different places.

Legend:
Pseudomonas aeruginosa = assay type: cell-based; settings: clinical isolate, 37° C. for one hour; for # of Survivors: minus peptide control 100,000; for % of Control: survivors
Protocol: (§1) In this test, antibiotic resistant clinical isolates of Pseudomonas aeruginosa and Staphylococcus aureus were obtained. The lytic peptide bioassay was performed as described below.
(§2) A flask containing 49 ml of nutrient broth was inoculated with 1 ml of an overnight culture of the test bacteria. The culture was allowed to grow to mid-log phase at 37° C. with shaking (approximately 4 hours). When the cells reached the correct density, the cells were transferred to a sterile tube and centrifuged for 10 minutes at 3000 rpm. The pellet was resuspended in 3 ml of phosphate buffer and centrifuged for 10 minutes at 3000 rpm. The pellet was resuspended once again in sufficient (but measured) volume to calculate the absorbance of the suspension at 600 nm. Using the resulting absorbance and a previously constructed growth curve, the required dilution to achieve a concentration of 10^6 cells/ml was determined.
(§3) The test culture tubes for the bioassay contained 800 μl of phosphate buffer, pH 7.0, 100 μl of cells at 10^6 cells/ml and 100 μl of peptide solution (10 μM to 1 mM). The final concentration of peptide in the assay was from 1 μM to 100 μM. A reaction system minus peptide was included as a control. The tubes were incubated at 37° C. for one hour.
(§4) After the incubation period two 1:10 serial dilutions in phosphate buffer were made for each culture(three 1:10 serial dilutions for the control culture). […] of each dilution was spread on a nutrient agar plate, in duplicate and incubated overnight at 37° C. The following day, the number of colonies on the control plates was counted to determine the starting number of cells in the assay tubes. The number of cells surviving the assay in the presence of peptide was also counted.

Staphylococcus aureus = experiment: In vitro lysis of pathogenic bacteria (lytic peptide bioassay, colony count of survivors); assay type: cell-based; settings: clinical isolate, 37° C. for one hour; for # of Survivors: minus peptide control 50,000; for % of Control: survivors
Protocol: as §1, §2, §3, §4

Ala Val Lys Arg Val Gly Arg Arg Leu Lys Lys Leu Ala Arg Lys Iso Ala Arg Leu Gly Val Ala Phe [SEQ ID NO. 14]
# of Survivors (Pseudomonas aeruginosa; peptide 1 μM): 100,000
# of Survivors (Pseudomonas aeruginosa; peptide 10 μM): 2
% of Control (Pseudomonas aeruginosa; peptide 1 μM): 100%
% of Control (Pseudomonas aeruginosa; peptide 10 μM): 0.002%
# of Survivors (Staphylococcus aureus; peptide 1 μM): 50,000
# of Survivors (Staphylococcus aureus; peptide 10 μM): 2,299
% of Control (Staphylococcus aureus; peptide 1 μM): 100%
% of Control (Staphylococcus aureus; peptide 10 μM): 4.6%
